The values below come from ChEMBL document CHEMBL1134944, “Design and synthesis of xanthine analogues as potent and selective PDE5 inhibitors” (Bioorg Med Chem Lett, 2002).

The target of experiment [1] is T1, cGMP-specific 3',5'-cyclic phosphodiesterase (Homo sapiens, UniProt O76074). Put plainly: Percentage inhibition against human phosphodiesterase type 5 isolated from corpus cavernosum at 100 nM.
The target in experiment [2] is T1, cGMP-specific 3',5'-cyclic phosphodiesterase. Put plainly: Concentration required to inhibit phosphodiesterase type 5 (PDE5) isolated from corpus cavernosum by 50% was determined.
In experiment [3] the target is Phosphodiesterases; PDE5 & PDE6 (Homo sapiens) (UniProt O76074+Q13956+P18545+P35913+O43924+P16499+P51160). Put plainly: Selectivity for PDE6 compared to PDE5. The experiment is classed as protein assay.
A short description of experiment [4]: Relative inhibition of PDEs 1-4 and PDE5.
For experiment [5], the species on record is Oryctolagus cuniculus. In words: 1.0 Hz electrical frequency stimulated (EFS) relaxation of rabbit corpus cavernosum at 25-30 nM. The experiment is classed as functional.
For experiment [6], the species on record is Oryctolagus cuniculus. Put plainly: 16.0 Hz electrical frequency stimulated (EFS) relaxation of rabbit corpus cavernosum at 25-30 nM. The experiment is classed as functional.
The species entered for experiment [7] is Oryctolagus cuniculus. In words: 8.0 Hz electrical frequency stimulated (EFS) relaxation of rabbit corpus cavernosum at 25-30 nM. The experiment is classed as functional.
For experiment [8], the species on record is Oryctolagus cuniculus. Put plainly: 4.0 Hz electrical frequency stimulated (EFS) relaxation of rabbit corpus cavernosum at 25-30 nM. The experiment is classed as functional.
The species entered for experiment [9] is Oryctolagus cuniculus. In words: 0.50 Hz electrical frequency stimulated (EFS) relaxation of rabbit corpus cavernosum at 25-30 nM. The experiment is classed as functional.
The species named for experiment [10] is Oryctolagus cuniculus. Put plainly: 2.0 Hz electrical frequency stimulated (EFS) relaxation of rabbit corpus cavernosum at 25-30 nM. The experiment is classed as functional.

The source made the active and inactive calls. No cut-off for these calls is given here.

As usually defined, the inhibition is the drop in the measured response relative to a control, in per cent. The low end stands for a response near the control, the high end for a response far below the control. Compound `CC(C)[C@H](CO)Nc1nc2c(c(=O)n(C)c(=O)n2C)n1Cc1ccccc1` showed an inhibition in experiment [1] of 11%. What is called IC50 is the concentration that gives 50% inhibition. Compound `CCn1c(=O)c2c(nc(NC3CCCCC3)n2Cc2ccc(OC)cc2)n(CC)c1=O` registered a concentration for half-maximal inhibition (IC50) in [2] of 2.6 nM. For the same compound, the Ratio in [3] was 51. Regarding `CCn1c(=O)c2c(nc(NC3CCCC3)n2Cc2ccc(O)cc2)n(CC)c1=O`, the IC50 in experiment [2] was determined as 1.5 nM. Besides, in experiment [3], the Ratio was 46.

As for `CCn1c(=O)c2c(nc(NC3CCCCC3)n2Cc2ccc(OC)c(Cl)c2)n(CC)c1=O`, the IC50 in [2] amounted to 0.58 nM. Also, the Ratio in [3] is 345; in experiment [4], > 9500. In the case of `CCn1c(=O)c2c(nc(NC3CCCCC3)n2Cc2ccc(O)c(C)c2)n(CC)c1=O`, in experiment [2], the IC50 amounted to 4.5 nM. In experiment [3], the Ratio turned out to be 133.

For `Cn1c(=O)c2c(nc(N[C@H](CO)Cc3ccccc3)n2Cc2ccccc2)n(C)c1=O`, the inhibition in [1] was determined as 0%. Consider `CC(C)Cn1c(=O)n(C)c(=O)c2c1nc(NC1CCCCC1)n2Cc1ccccc1`, for which, in experiment [1], the inhibition is 52%. Take `Cn1c(=O)c2c(nc(NC3CCCCC3)n2Cc2ccccc2)n(C)c1=O`: the inhibition in experiment [1] amounted to 54%. Consider `CCn1c(=O)c2c(nc(NC3CCCCC3)n2Cc2cccc(O)c2)n(CC)c1=O`, for which the IC50 in experiment [2] is 1.2 nM. Also, in experiment [3], the Ratio stood at 36. For `CCn1c(=O)c2c(nc(NC3CCCCC3)n2Cc2ccc(OC)c(F)c2)n(CC)c1=O`, the IC50 in experiment [2] was determined as 0.3 nM. The figures for the Ratio in [3] and in experiment [4] were 350 and > 28000, respectively. `CCn1c(=O)c2c(nc(NC3CCCC3)n2Cc2ccccc2)n(CC(C)C)c1=O` showed an inhibition in experiment [1] of 56%.

Compound `CCn1c(=O)c2c(nc(NC3CCCC3)n2Cc2ccc(OC)cc2)n(CC)c1=O` had an IC50 in experiment [2] of 2.1 nM. Besides, in [3], the Ratio was 33.

In turn, `Cn1c(=O)c2c(nc(N[C@H](CO)c3ccccc3)n2Cc2ccccc2)n(C)c1=O` yielded an inhibition in [1] of 5%. Turning to `CCn1c(=O)c2c(nc(NC3CCCC3)n2Cc2ccc(O)c(Cl)c2)n(CC)c1=O`, the concentration for half-maximal inhibition (IC50) in experiment [2] came to 1.8 nM. Also, the Ratio in [3] stood at 261. Compound `CCn1c(=O)c2c(nc(NC3CCCC3)n2Cc2ccccc2)n(CC)c1=O` gave an inhibition in experiment [1] of 91%. Moreover, in experiment [3], the Ratio amounted to 21. `CCn1c(=O)c2c(nc(NC3CCCCC3)n2Cc2ccc3c(c2)OCO3)n(CC)c1=O` had an IC50 in experiment [2] of 3.7 nM. Further, in [3], the Ratio was 14. Turning to `CC(C)Cn1c(=O)n(C)c(=O)c2c1nc(NC1CCCC1)n2Cc1ccccc1`, the inhibition in experiment [1] was determined as 49%. Regarding `CCn1c(=O)c2c(nc(NC3CCCCC3)n2Cc2ccc(OC)c(Br)c2)n(CC)c1=O`, half-maximal inhibition in experiment [2] (IC50) was put at 1.7 nM. The Ratio was 219 in experiment [3] and > 10000 in [4].

In experiment [1], `CC(C)[C@@H](CO)Nc1nc2c(c(=O)n(C)c(=O)n2C)n1Cc1ccccc1` showed an inhibition of 2%. Turning to `CCn1c(=O)c2c(nc(NC3CCCCC3)n2Cc2ccc(O)c(Cl)c2)n(CC)c1=O`, in experiment [2], half-maximal inhibition (IC50) required 2 nM. Further, the Ratio in [3] amounted to 250. As for `Cn1c(=O)c2c(nc(N[C@@H](CO)Cc3ccccc3)n2Cc2ccccc2)n(C)c1=O`, the inhibition in [1] came out at 4%. As to `CCn1c(=O)c2c(nc(NC3CCCCC3)n2Cc2ccc(OC)c(C)c2)n(CC)c1=O`, it took 19 nM to reach half-maximal inhibition in [2] (IC50). The Ratio in experiment [3] worked out at 58. On to `CCn1c(=O)c2c(nc(NC3CCCC3)n2Cc2ccc(O)c(F)c2)n(CC)c1=O`, for which inhibition in experiment [2] was half-maximal at 0.82 nM (IC50). The Ratio in experiment [3] was 182; in experiment [4], > 4400. `CCn1c(=O)c2c(nc(NC3CCCC3)n2Cc2ccc(OC)c(Cl)c2)n(CC)c1=O`: in experiment [2], the IC50 turned out to be 1.1 nM. The Ratio in experiment [3] was determined as 118. In turn, `CCn1c(=O)c2c(nc(NC3CCCC3)n2Cc2ccc(OC)c(F)c2)n(CC)c1=O` showed an IC50 in experiment [2] of 0.69 nM. In [3], the Ratio came to 89. As for `CCn1c(=O)c2c(nc(NC3CCCCC3)n2Cc2ccccc2)n(CC(C)C)c1=O`, the inhibition in experiment [1] stood at 63%. In [1], `Cn1c(=O)c2c(nc(N[C@@H]3CCC[C@H]3O)n2Cc2ccccc2)n(C)c1=O` displayed an inhibition of 17%.

For `CCn1c(=O)c2c(nc(NC3CCCCC3)n2Cc2ccccc2)n(CC)c1=O`, in experiment [1], the inhibition stood at 93%. Further, the concentration for half-maximal inhibition (IC50) in experiment [2] is 12 nM. Besides, the Ratio in experiment [3] was 35.

Regarding `CCn1c(=O)c2c(nc(NC3CCCCC3)n2Cc2ccc(O)cc2)n(CC)c1=O`, the Relaxation in experiment [5] is reported as 50%; in experiment [6], 75%; in experiment [7] it was 75%; in [8] it was 75%; in experiment [9] it was 25%; in [10] it was 75%. The same compound displayed a half-maximal inhibitory concentration (IC50) in [2] of 0.6 nM. Moreover, the figures for the Ratio in experiment [3] and in experiment [4] were 101 and > 3000, respectively. In turn, `Cn1c(=O)c2c(nc(NCC3(O)CCCCC3)n2Cc2ccccc2)n(C)c1=O` showed an inhibition in experiment [1] of 10%. In the case of `Cn1c(=O)c2c(nc(N[C@@H](CO)c3ccccc3)n2Cc2ccccc2)n(C)c1=O`, the inhibition in experiment [1] amounted to 0%. Compound `CCn1c(=O)c2c(nc(NC3CCCCC3)n2Cc2ccc(O)c(F)c2)n(CC)c1=O` came in with an IC50 in [2] of 0.33 nM. Also, the Ratio in [3] was 364; in experiment [4], > 12000. For the compound `CCn1c(=O)c2c(nc(NC3CCCCC3)n2Cc2cccc(OC)c2)n(CC)c1=O`, the IC50 in experiment [2] stood at 100 nM. Moreover, the Ratio entry in experiment [3] was “inactive”. Regarding `Cn1c(=O)c2c(nc(NC3CCCC3)n2Cc2ccccc2)n(C)c1=O`, the inhibition in experiment [1] came to 62%.
